The subject of series [1] is Caco-2 cells. As to the kind of experiment: Caco-2 in vitro magnesium transport assay. To be noted: for Magnesium transport with increasing treatment concentration: 0, 5, 10, 15, 20, and 25 mg Mg (ascorbate or chloride). Here is the method:
Caco-2 cells were used to model in vitro magnesium absorption of intestinal cells. […] Six different solutions, with magnesium and varying ratios of ascorbate were tested. Each solution comprised 20 mM of magnesium. Cells were exposed to one of the six solutions for 4 hours, then the basal media was analyzed for magnesium, using a colorimetric test.
Various magnesium solutions were tested to determine their impact on magnesium transport: magnesium ascorbate, magnesium bisglycinate, magnesium orotate, magnesium threonate, and magnesium malate (trihydrate and hexahydrate; abbreviated MgM3H20 or MgM6H20 respectively in FIG. 2). […] (see FIG. 2)
Six different treatment concentrations were tested: 0, 5, 10, 15, 20, and 25 mg Mg (ascorbate or chloride).
For orientation: Caco-2 cells form a polarised layer with tight junctions and transporters.

Series [2] concerns Caco-2 cells. As to the kind of experiment: Caco-2 cell viability with ascorbic acid (fluorescent probes). The format is cell-based. The conditions noted are these: 0, 5, 25, or 50 mM ascorbic acid for 240 min; cells propagated 14 days. On the procedure:
FIG. 5 depicts a graph illustrating the viability over time of cells incubated with various solutions. Caco-2 cells were propagated in T-75 tissue culture flasks for 14 days. The cells were then incubated with either 0, 5, 25, or 50 mM ascorbic acid for 240 min. Fluorescent probes were used to determine viability.
Experiments were performed to test the impact of various ascorbic acid concentrations on cell viability. Caco-2 cells were propagated in T-75 tissue culture flasks for 14 days. The cells were then incubated with either 0, 5, 25, or 50 mM ascorbic acid for 240 min. Fluorescent probes were used to determine viability.

On to `[Cl-].[Cl-].[Mg+2]` [magnesium chloride, reference compound], for which, in series [1] (FIG. 3), the “Magnesium transport with increasing treatment concentration” value is recorded as “increased magnesium transport, in a linear fashion”. Take `O=C1O[C@H]([C@@H](O)CO)C(O)=C1O` [ascorbic acid]: the Cell viability entry in series [2] is on record as “no conclusive evidence that ascorbic acid kills the cells”.

In the case of magnesium ascorbate, the “Magnesium transport with increasing treatment concentration” value in series [1] (FIG. 3) is “significant jump in magnesium transport between the 10 mM treatment and the 15 mM treatment”. The “Magnesium transport compared with magnesium chloride at any given concentration tested” value in series [1] (0, 5, 10, 15, 20, and 25 mg Mg, FIG. 3) is “greater magnesium transport than magnesium chloride”. Besides, the “Magnesium transport rate compared with other magnesium solutions” value in series [1] (vs magnesium bisglycinate, orotate, threonate, malate (trihydrate and hexahydrate), FIG. 2) is recorded as “statistically significant higher transport rate than any other magnesium solution tested”.

The values above are taken from patent US12496289B2, “Methods of increasing magnesium bioavailability and absorption” (Balchem Corporation, priority 2020, dated 2025).
